Measured values: patent publication US20050107289A1, “Anti-microbial peptides and compositions” (priority 2001, published 2005)
Non-standard residues stand in square brackets, D forms with d. Residues, ends and D or L forms follow the SMILES beside them.

Columns and labels:
[1] = system: murine red blood cells; test: Red blood cell hemolysis; assay type: cell-based, mouse
In short: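 Washed murine erythrocytes at 5% in saline with 10% FBS were exposed to serial peptide dilutions for 30 min at 37° C. Supernatant absorbance at 560 nm was read, with saline as 0% and 1% Triton X-100 as 100% hemolysis.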

[2] = Toxicity studies in mice; assay type: in vivo; design: LD50(IP) / LD50(IV): unit not given here; settings: for LD50(IP) / LD50(IV): Table 12, male Balb-C mice; for LD50 at 14 days: male, Balb-C, mouse, in vivo, ip, Table 13
Procedure: Peptides were tested for toxicity in vivo using procedures similar to those described previously. […] Mice (male Balb-C) in groups of 4-8 were given via IV, IP or SQ single bolucdoses of peptides and monitored for 14 days. Toxicity of sublethal doses was assessed based on the behavior and appearance of the mice after peptide administration compared to control mice receiving only vehicle. Signs of acute toxicity included lack of activity, red feet and tail, faster breathing. Death was defined as the end point for lethal doses of peptides.
Toxicology Studies: Initial toxicology studies in mice were conducted to evaluate various routes of drug administration, maximum tolerable dose, and blood and tissue toxicity. Two mice in each dose study were injected with a bolus intravenous (IV), intraperitoneal (IP), or subcutaneous (SQ) doses of peptide SEQ ID NO:8, 18, and 26. For each study, two control animals received vehicle only and no peptide. […] Signs of acute toxicity included any one of the following: lack of activity, red feet and tail, or faster breathing. […] A regimen of […] of peptide SEQ ID NO:18 for three consecutive days was administered to two mice IP and two mice SQ.

[3] = system: vancomycin-resistant Enterococus faecalis (VRE)(ATCC 51575); assay type: cell-based, Enterococcus faecalis; design: key to VRE (in vitro activity): peptide concentration in μg/ml (broth dilution assay); settings: for In Vitro VREF MIC / VRE MIC: ATCC 51575; for VRE (in vitro activity): Table 9, media a: AM-3
In short: (§1)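 Broth microdilution (macrodilution in some cases) per NCCLS M7-A4; peptides 2-fold serially diluted in 5% DMSO/9% sucrose, ~400-2 μg/ml before dilution into broth; inoculum ~2.5×10^5 cfu/ml from overnight culture diluted 4000×.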

[4] = system: S. aureus (MRSA) ATCC 33591; assay type: cell-based, Staphylococcus aureus; settings: for In Vitro MRSA MIC / MRSA MIC / S. aureus (MRSA) MIC: ATCC 33591; for MRSA (in vitro activity): Table 9, media a: anti-microbial media-3 (AM-3)
In short: as §1

[5] = system: S. aureus MRSA (ATCC 33591); test: Mouse peritonitis model, MRSA protection; assay type: in vivo, mice; design: PD50 MRSA: unit not given here; settings: for PD50 MRSA: Table 12, male Balb-C mice, IP infection, IP peptide; for In Vivo MRSA PD50: Table 13; for protection of mice from MRSA infection: single bolus IP dose of appropriate amount, 45-60 min after infection; for mice survived: fourteen-day study
Procedure: Bacteria were prepared for in vivo using procedures similar to those as previously described. […] S. aureus MRSA bacteria (ATCC 33591) were grown at 37° C. in 5 mL of Antibiotic Medium-3 (AM-3, Difco Laboratories) with agitation for 12 hours to a stationary phase. Cells were collected by centrifugation, washed twice with saline solution and resuspended in about 10 mL of saline to an O.D.650 of 1.2. This suspension was diluted ten times in a sterilized 5% mucin (Difco) in saline to a concentration of 2-4×10^7 cfu/ml (actual inoculum size was verified by colony counts on agar plates).
Peptides of the invention were tested in mice to ascertain whether they would protect the mice against bacterial infection using procedures similar to those described in N. Frimodt-Moller et al., The Mouse Peritonitis/Sepsis Model, in Zak et al. (eds.) HANDBOOK OF ANIMAL MODELS OF INFECTION 127-37 (Academic Press 1999).
Male Balb-C mice (6 weeks old, approximately 20 g) were used in the study. Staphylococcus aureus MRSA bacteria (ATCC 33591) were grown at 37° C. with agitation for 12 hours to a stationary phase. Cells were collected by centrifugation, washed twice with saline and resuspended to an O.D.650 of 1.4. This suspension was diluted ten times with saline and resuspended to a concentration of 3-5×10^7 cfu/ml. For each peptide five groups of eight mice per group were infected I.P. with 0.5 ml of the above Staphylococcus aureus MRSA preparation (lethal dose). Forty-five minutes to an hour after infection, each group was treated with a different dose of peptide and a control group received vehicle only. Mice were monitored for fourteen days; death was defined as the end point. Median protecting doses (PD50) were calculated following the Reed and Muench method. […] For IV and SQ models peptide was administered immediately after IP infection.

| Compound | In Vitro RBC MIC [1] [µg/mL] | RBC Hemolysis (HD50) [1] | LD50(IP) [2] | LD50(IV) [2] | LD50 at 14 days [2] [mg/kg] | In Vitro VREF MIC [3] [µg/mL] | VRE MIC [3] [µg/mL] | VRE (in vitro activity) [3] | In Vitro MRSA MIC [4] [µg/mL] | MRSA MIC [4] [µg/mL] | S. aureus (MRSA) MIC [4] [µg/mL] | MRSA (in vitro activity) [4] | PD50 S. aureus MRSA infection [5] [mg/kg] | PD50 MRSA [5] | In Vivo MRSA PD50 [5] [mg/kg] | protection of mice from MRSA infection [5] | other results |
| --- | --- | --- | --- | --- | --- | --- | --- | --- | --- | --- | --- | --- | --- | --- | --- | --- | --- |
| CC(C)C[C@H]1NC(=O)[C@H](Cc2c[nH]c3ccccc23)NC(=O)[C@@H](CCCCN)NC(=O)[C@H](CO)NC(=O)[C@@H](CCCCN)NC(=O)[C@H](Cc2c[nH]c3ccccc23)NC(=O)[C@@H](CC(C)C)NC(=O)[C@H](Cc2c[nH]c3ccccc23)NC1=O [SEQ ID NO:12, D-Lys-Ser-D-Lys-Trp-D-Leu-Trp-D-Leu-Trp] (cyclo([dK]S[dK]W[dL]W[dL]W)) | 100 | 100 | >400 | 70 | > 400 | 15 | 15 | 15 | 5 | 5 | 5 | 5 | 20 | 20 | 20 | completely protect |  |
| CC(C)C[C@H]1NC(=O)[C@H](Cc2c[nH]c3ccccc23)NC(=O)[C@@H](CCCCN)NC(=O)[C@H](CCCNC(=N)N)NC(=O)[C@@H](CCCNC(=N)N)NC(=O)[C@H](Cc2c[nH]c3ccccc23)NC(=O)[C@@H](CC(C)C)NC(=O)[C@H](Cc2c[nH]c3ccccc23)NC1=O [SEQ ID NO:18, cyclo-(D-Arg-Arg-D-Lys-Trp-D-Leu-Trp-D-Leu-Trp)] (cyclo([dR]R[dK]W[dL]W[dL]W)) | 50 | 50 | 60 | 16 | 60 | 5 | 5 | 5 | 6 | 5 | 6 | 5 | 8 | 8 | 8 | completely protect | physical, social and feeding activities ([2]; mice, 17.5 mg per day, three consecutive days, IP or SQ, over four days): no apparent changes in the physical, social, and feeding activities; sites of IP and SQ injections ([2]; mice, 17.5 mg per day, three days): moderate subacute inflammation; hematology, necropsy and microscopic examination ([2]; mice, 17.5 mg per day, three days, fourth day): normal blood and morphological profiles except for the sites of IP and SQ injections; signs of toxicity ([2]; mice, up to 17.5 mg/kg IP and SQ): without any apparent signs of toxicity; mice survived ([5]; 40 mg/kg bolus SQ): 75%; mice survived ([5]; 2.5×5 mg/kg IV dosage regimen): 50%; PD50 protective dose where 50% of animals survive ([5]; FIG. 6, mice challenged with lethal doses of MRSA): 5 ± 2 mg/kg |
| CC(C)C[C@H]1NC(=O)[C@H](Cc2c[nH]c3ccccc23)NC(=O)[C@@H](CCCNC(=N)N)NC(=O)[C@H](CCC(N)=O)NC(=O)[C@@H](CCCCN)NC(=O)[C@H](Cc2c[nH]c3ccccc23)NC(=O)[C@@H](CC(C)C)NC(=O)[C@H](Cc2c[nH]c3ccccc23)NC1=O [SEQ ID NO:8, cyclo-(D-Lys-Gln-D-Arg-Trp-D-Leu-Trp-D-Leu-Trp)] (cyclo([dK]Q[dR]W[dL]W[dL]W)) | 40 |  | 55 | >12 | 55 | 12 |  |  | 12 |  | 6 |  | 7 | 7 | 7 | completely protect | HD50 [1]: 10 µg/mL; reduction in hemolytic activity [1]: five-fold; Hemolysis HD50 ([1]; red cells of murine): 45 µg/mL; signs of toxicity ([2]; mice, IP, maximum tested dose 12 mg/kg): no signs of toxicity were observed; signs of toxicity ([2]; mice, bolus IV 12 mg/kg): signs of temporary (<10 min in duration) discomfort |
